Laboratory results from patent US20040259783A1, “Pharmaceutical compositions of marine sponge microciona prolifera” (priority 2001, published 2004).

Columns and labels:
[1] = test system: rat aortic smooth muscle cells, A-10; assay: Smooth muscle cell migration in vitro assay (scrape injury); type: cell-based; conditions: concentration giving 100% inhibition of smooth muscle cell motility, incubation up to 24 hrs
Protocol: The following in vitro assays were conducted to illustrate the effect of peptides, carbohydrates and extract (2.7K) on the smooth muscle cell migration. The cells used in the following example were rat aortic smooth muscle cells, A-10. The cells were seeded at 2.5×10^5 cells/well in 6 well plates using Dulbecco's Modified Eagle Medium (Gibco BRL Cat. # 11885-084),10% FBS and 1% Antibiotic Antimycotic (Gibco BRL Cat. # 15240). Confluency of cells after about 8 hrs was between 80˜90%. Cells were injured with the single edge cell scraper (one injury/well) then washed twice with PBS and treated with peptides B-1 (SEQ ID NO:1), B-2 (SEQ ID NO:2 ), B-3 (SEQ ID NO: 3), B-6, (SEQ ID NO: 4), B-9(SEQ ID NO:5), B-10(SEQ ID NO:6) AND B-11(SEQ ID NO: 7) at concentrations ranging from 10 μg/ml ml to 100 μg/ml. Images were taken using a X5 modulation objective (Zeiss, Germany) attached to a Zeiss Axiovert 100 inverted microscope equipped with Hoffman Modulation contrast optical filters (Greenvale, N.Y.).
The images were taken at zero time and following the incubation of smooth muscle cells with peptide, carbohydrates and extracts for a period of up to 24 hrs (FIGS. 1, 2, 3 and 4).

EAE mouse model = EAE mouse model (acute EAE induced with MBP and PTX); type: in vivo; conditions: 5 mg/kg daily; for clinical signs of MS symptoms: improvement in mean clinical score and delay in progression to disability; for mean clinical score: day 15, scale of 0 to 5, PBS treated mice 1.7 (B-9 study), 1.5 (B-1 study)
Protocol: The EAE mouse model is the standard animal model used for testing therapeutic compounds in the treatment of multiple sclerosis (MS). Acute EAE was induced by immunization of 3 months old SJL/J female mice (Jackson Lab.; Bar Harbor, Me.) with the MBP (myelin basic protein) and PTX (pertussis toxin). Each animal received an s.c. injection at tail base of 200 μg MBP in 0.1 ml of CFA and received an i.v. injection of 200 ng of PTX; pertussis toxin was injected again 48 hours later. Mice (4 animals per group) were treated with the peptide B-1 (SEQ ID NO: 1) or peptide B-9 (SEQ ID NO: 5) at a dose of 5 mg/kg daily; injections starting on the day of first immunization. Treatment was stopped at time of sacrifice. Mice were monitored daily from day 7 after immunization for clinical signs of EAE and were scored on a scale of 0 to 5. A score of 0 represented the absence of signs while a score of 5 was given to moribund animals.

[2] = MAF carbohydrates and MAF 2.7 K extract

Molecule	100% Inhibition of Cell Motility [1, 2]	100% Inhibition of Cell Motility ([1]; MAFp3 peptides)	clinical signs of MS symptoms (EAE mouse model)	mean clinical score (EAE mouse model)
CC(=O)N[C@H]1[C@H](O[C@@H]2[C@H](O)[C@H](C)OC(O)[C@H]2O)O[C@H](CO)[C@@H](O)[C@@H]1O (stereo partly shown) [RR-1 disaccharides, GlcNAcβ1-3Fuc]	5˜10 μg/mL			
CC(=O)NC1C(OC2C(O)C(C)OC(O)C2O)OC(CO)C(OC2OC3COC(C)(C(=O)O)OC3C(O)C2O)C1O (stereo not shown) [RR-5 trisaccharides, (4,6-Pyr)Galβ1-4GlcNAcβ1-3Fuc]	25 µg/mL			
CFLTPHGVELHK (artificial peptide derived from Microciona prolifera) [Peptide B-10, 12 amino acid synthetic peptide derived from MAF]		100 µg/mL		
EDQLDAMNLS (artificial peptide derived from Microciona prolifera) [Peptide B-3, 10 amino acid synthetic peptide derived from MAF]		50 µg/mL		
GSGIGDEPTTS (artificial peptide derived from Microciona prolifera) [Peptide B-6, 11 amino acid synthetic peptide derived from MAF]		50˜75 μg/ml		
GVSVRRYRNRVRI (listed as Microciona prolifera) [Peptide B-1]		100 µg/mL	significant attenuation	0.7
NGSIGPRGLPGVRGDRGKRGK (artificial peptide derived from Microciona prolifera) [Peptide B-11]		75˜100 μg/ml		
RFVINITTSGSD (artificial peptide derived from Microciona prolifera) [Peptide B-9, 12 amino acid synthetic peptide derived from MAF]		20 µg/mL	significant attenuation	0.6
VGFDPYDYEVNEADG (artificial peptide derived from Microciona prolifera) [Peptide B-2, 15 amino acid synthetic peptide, derived from MAF]		50 to 100 µg/mL		
